Data from patent publication US7569593B2, “Compounds and compositions as protein kinase inhibitors” (IRM LLC, priority 2003, dated 2009).

Assays:
Format in all cases: biochemical
c-RAF = biological target: T1, c-RAF (Homo sapiens, UniProt P04049); test: Upstate KinaseProfiler radio-enzymatic filter binding assay; conditions: at a concentration of 10 μM; 100% means complete inhibition; read-out: percentage inhibition of c-RAF
T1 construct: purchased Upstate (KinaseProfiler panel)
Protocol: (§1) Compounds of the invention are assessed for their ability to inhibit individual members of a panel of kinases (a partial, non-limiting list of kinases includes: Abl, BCR-Abl, EGF-R, c-erbB2 kinase (HER-2), PDGF-R, lck, SAPK2α, p38, TGFβ, KDR, c-Kit, b-RAF, c-RAF, FLTI and FLT4). The compounds are tested in duplicates at a final concentration of 10 μM following this generic protocol. Note that the kinase buffer composition and the substrates vary for the different kinases included in the “Upstate KinaseProfiler™” panel. Kinase buffer (2.5 μL, 10x—containing MnCl2 when required), active kinase (0.001-0.01 Units; 2.5 μL), specific or Poly(Glu4-Tyr) peptide (5-500 μM or .01mg/ml) in kinase buffer and kinase buffer ([…]; 5 μL) are mixed in an eppendorf on ice. A Mg/ATP mix (10 μL; 67.5 (or 33.75) mM MgCl2, 450 (or 225) μM ATP and 1 μCi/μl [γ-^32P]-ATP (3000 Ci/mmol)) is added and the reaction is incubated at about 30° C. for about 10 minutes. The reaction mixture is spotted (20 μL) onto a 2 cm×2 cm P81 (phosphocellulose, for positively charged peptide substrates) or Whatman No. 1 (for Poly (Glu4-Tyr) peptide substrate) paper square. The assay squares are washed 4 times, for 5 minutes each, with 0.75% phosphoric acid and washed once with acetone for 5 minutes. The assay squares are transferred to a scintillation vial, 5 ml scintillation cocktail are added and ^32P incorporation (cpm) to the peptide substrate is quantified with a Beckman scintillation counter. Percentage inhibition is calculated for each reaction.

Abl = biological target: T2, Abl (Homo sapiens, UniProt P00519); test: as above; conditions: at a concentration of 10 μM; 100% means complete inhibition; read-out: percentage inhibition of Abl
T2 construct: purchased Upstate (KinaseProfiler panel)
Protocol: as §1

Lck = biological target: T3, Lck (Homo sapiens, UniProt P06239); test: as above; conditions: at a concentration of 10 μM; 100% means complete inhibition; read-out: percentage inhibition of Lck
T3 construct: purchased Upstate (KinaseProfiler panel)
Protocol: as §1

SAPK2α = biological target: T4, SAPK2α (Homo sapiens, UniProt Q16539); test: as above; conditions: at a concentration of 10 μM; 100% means complete inhibition; read-out: percentage inhibition of SAPK2α
T4 construct: purchased Upstate (KinaseProfiler panel)
Protocol: as §1

b-Raf = b-Raf (Homo sapiens, UniProt P15056); test: b-Raf kinase inhibition assay (IκBα substrate, 384-well plate); conditions: read-out: IC50 against b-Raf
Protocol: Compounds of the invention are tested for their ability to inhibit the activity of b-Raf. The assay is carried out in 384-well MaxiSorp plates (NUNC) with black walls and clear bottom. The substrate, IκBα is diluted in DPBS (1:750) and 15 μl is added to each well. The plates are incubated at 4° C. overnight and washed 3 times with TBST (25 mM Tris, pH 8.0, 150 mM NaCl and 0.05% Tween-20) using the EMBLA plate washer. Plates are blocked by Superblock (15 μl/well) for 3 hours at room temperature, washed 3 times with TBST and pat-dried. Assay buffer containing 20 μM ATP (10 μl) is added to each well followed by 100 nl or 500 nl of compound. B-Raf is diluted in the assay buffer (1 μl into 25 μl) and 10 μl of diluted b-Raf is added to each well (0.4 μg/well). The plates are incubated at room temperature for 2.5 hours. The kinase reaction is stopped by washing the plates 6 times with TBST. Phosph-IκBα (Ser32/36) antibody is diluted in Superblock (1:10,000) and 15 μl is added to each well. The plates are incubated at 4° C. overnight and washed 6 times with TBST. AP-conjugated goat-anti-mouse IgG is diluted in Superblock (1:1,500) and 15 μl is added to each well. Plates are incubated at room temperature for 1 hour and washed 6 times with TBST. […] Plates are read on Acquest or Analyst GT using a Fluorescence Intensity Nanxin BBT anion (505 dichroic mirror).

Sequence of b-Raf (P15056 whole entry): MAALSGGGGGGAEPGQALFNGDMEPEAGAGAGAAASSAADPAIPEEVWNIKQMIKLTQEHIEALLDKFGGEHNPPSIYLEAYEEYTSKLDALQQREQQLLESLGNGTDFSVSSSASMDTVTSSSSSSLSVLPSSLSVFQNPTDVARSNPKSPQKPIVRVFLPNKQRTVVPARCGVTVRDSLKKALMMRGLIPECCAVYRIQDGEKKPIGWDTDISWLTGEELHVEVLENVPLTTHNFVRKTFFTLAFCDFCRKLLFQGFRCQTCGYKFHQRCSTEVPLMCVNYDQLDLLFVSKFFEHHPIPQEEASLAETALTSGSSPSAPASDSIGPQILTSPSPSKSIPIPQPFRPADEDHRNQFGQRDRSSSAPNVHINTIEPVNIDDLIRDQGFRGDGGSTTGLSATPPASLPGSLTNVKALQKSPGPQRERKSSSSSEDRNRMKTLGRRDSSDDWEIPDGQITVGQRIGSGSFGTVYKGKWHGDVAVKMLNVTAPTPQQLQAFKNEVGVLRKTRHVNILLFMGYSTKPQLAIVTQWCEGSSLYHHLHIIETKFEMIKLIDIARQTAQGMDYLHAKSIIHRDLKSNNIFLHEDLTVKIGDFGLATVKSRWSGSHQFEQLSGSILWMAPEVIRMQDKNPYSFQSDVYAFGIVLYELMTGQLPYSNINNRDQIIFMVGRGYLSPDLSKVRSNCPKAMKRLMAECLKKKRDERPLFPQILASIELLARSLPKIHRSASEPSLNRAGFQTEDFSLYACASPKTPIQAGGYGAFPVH
T1 sequence (P04049 whole entry): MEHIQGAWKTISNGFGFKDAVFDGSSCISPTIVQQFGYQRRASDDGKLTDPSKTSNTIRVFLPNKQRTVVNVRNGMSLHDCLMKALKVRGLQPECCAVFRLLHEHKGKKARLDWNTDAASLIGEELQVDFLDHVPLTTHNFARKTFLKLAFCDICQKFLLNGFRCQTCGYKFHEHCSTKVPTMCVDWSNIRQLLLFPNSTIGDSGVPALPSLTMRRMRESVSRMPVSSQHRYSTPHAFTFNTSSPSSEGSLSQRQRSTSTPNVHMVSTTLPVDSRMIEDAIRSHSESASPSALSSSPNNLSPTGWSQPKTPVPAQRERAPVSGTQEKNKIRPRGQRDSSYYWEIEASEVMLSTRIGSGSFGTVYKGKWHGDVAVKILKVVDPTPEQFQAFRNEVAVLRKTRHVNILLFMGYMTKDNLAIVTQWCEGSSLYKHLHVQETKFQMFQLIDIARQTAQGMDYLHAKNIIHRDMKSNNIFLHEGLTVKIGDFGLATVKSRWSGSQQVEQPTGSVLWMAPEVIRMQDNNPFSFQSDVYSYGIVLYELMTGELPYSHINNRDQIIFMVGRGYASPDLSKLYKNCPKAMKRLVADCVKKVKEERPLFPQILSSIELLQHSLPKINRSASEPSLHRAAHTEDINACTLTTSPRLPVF
T2 sequence (P00519 whole entry, species assumed): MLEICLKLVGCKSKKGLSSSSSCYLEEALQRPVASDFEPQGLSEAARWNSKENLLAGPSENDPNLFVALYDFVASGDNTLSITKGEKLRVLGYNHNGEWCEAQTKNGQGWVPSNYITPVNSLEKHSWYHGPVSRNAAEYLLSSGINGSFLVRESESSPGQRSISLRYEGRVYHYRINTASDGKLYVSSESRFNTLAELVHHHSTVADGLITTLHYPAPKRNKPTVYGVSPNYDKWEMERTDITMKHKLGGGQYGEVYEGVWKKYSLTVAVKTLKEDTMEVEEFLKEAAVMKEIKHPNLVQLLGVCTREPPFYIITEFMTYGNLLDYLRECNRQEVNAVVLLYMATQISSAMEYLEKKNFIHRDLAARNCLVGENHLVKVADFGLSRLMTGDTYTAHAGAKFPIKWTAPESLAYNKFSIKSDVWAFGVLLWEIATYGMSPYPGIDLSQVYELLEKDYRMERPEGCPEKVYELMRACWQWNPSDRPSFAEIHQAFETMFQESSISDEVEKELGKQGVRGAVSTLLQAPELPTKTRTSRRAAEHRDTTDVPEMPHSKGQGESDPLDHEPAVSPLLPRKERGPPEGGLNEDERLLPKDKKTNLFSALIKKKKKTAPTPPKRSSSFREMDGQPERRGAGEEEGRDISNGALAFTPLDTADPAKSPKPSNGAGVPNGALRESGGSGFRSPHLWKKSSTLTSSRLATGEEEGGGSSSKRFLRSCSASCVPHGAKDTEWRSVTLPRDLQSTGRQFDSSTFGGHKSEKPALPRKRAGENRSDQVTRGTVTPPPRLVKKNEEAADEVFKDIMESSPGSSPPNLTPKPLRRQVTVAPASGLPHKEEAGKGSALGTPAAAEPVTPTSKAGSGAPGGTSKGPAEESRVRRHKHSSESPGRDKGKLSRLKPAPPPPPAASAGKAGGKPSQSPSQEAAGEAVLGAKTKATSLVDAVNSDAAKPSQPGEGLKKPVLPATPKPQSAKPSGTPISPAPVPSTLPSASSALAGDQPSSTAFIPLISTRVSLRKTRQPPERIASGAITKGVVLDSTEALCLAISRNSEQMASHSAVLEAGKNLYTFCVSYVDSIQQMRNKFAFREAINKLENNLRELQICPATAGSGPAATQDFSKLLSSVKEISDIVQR
T3 sequence (P06239 whole entry, species assumed): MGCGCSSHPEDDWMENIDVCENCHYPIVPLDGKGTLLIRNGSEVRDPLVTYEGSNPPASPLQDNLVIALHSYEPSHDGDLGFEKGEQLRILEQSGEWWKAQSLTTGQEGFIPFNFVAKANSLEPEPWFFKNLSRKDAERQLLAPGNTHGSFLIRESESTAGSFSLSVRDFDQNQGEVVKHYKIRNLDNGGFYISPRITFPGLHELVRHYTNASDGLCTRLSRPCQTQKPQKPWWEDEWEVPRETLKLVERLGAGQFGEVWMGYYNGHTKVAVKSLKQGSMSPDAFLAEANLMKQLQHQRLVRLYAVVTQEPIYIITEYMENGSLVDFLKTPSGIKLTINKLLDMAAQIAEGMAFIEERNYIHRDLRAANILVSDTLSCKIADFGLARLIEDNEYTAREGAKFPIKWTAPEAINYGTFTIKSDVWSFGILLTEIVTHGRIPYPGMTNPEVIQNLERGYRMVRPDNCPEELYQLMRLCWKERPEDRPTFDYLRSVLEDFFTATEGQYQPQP
T4 sequence (Q16539 whole entry): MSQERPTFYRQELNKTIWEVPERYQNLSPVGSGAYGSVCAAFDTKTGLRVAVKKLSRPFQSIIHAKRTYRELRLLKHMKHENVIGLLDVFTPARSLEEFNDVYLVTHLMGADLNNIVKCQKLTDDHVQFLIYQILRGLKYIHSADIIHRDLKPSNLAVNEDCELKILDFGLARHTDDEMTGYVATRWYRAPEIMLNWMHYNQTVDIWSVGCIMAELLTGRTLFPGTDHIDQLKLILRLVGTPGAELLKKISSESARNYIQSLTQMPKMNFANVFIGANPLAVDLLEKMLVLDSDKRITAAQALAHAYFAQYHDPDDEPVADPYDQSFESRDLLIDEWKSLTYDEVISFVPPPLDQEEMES

inhibition at 10 µM (c-RAF) [%]	inhibition at 10 µM (Abl) [%]	inhibition at 10 µM (Lck) [%]	inhibition at 10 µM (SAPK2α) [%]	SMILES	IC50 (b-Raf) [µM]
98	98	61	74	Oc1ccc2cc(-c3nc(-c4ccccc4)[nH]c3-c3ccncc3)ccc2c1 [Compound 11, 6-(2-phenyl-5-pyridin-4-yl-1H-imidazol-4-yl)-naphthalen-2-ol]	0.3
–	–	–	–	CN(C)c1ccc(NC(=O)Oc2ccc3cc(-c4nc(-c5ccccc5)[nH]c4-c4ccncc4)ccc3c2)cc1 [Compound 15, (4-dimethylamino-phenyl)-carbamic acid 6-(2-phenyl-5-pyridin-4-yl-1H-imidazol-4-yl)-naphthalen-2-yl ester]	0.879
